Assay results: US20230107742A1, “SYNERGISTIC EFFECTS, AUGMENTING ANTIMICROBAL EFFECTS OF LIPIDS” (CAPRETTO EHF., priority 2016, published 2023)

Tests used:
[1] = test system: Enveloped viruses, such as HSV-1, VSV and visna virus; conditions: more active than the free acid; cited from earlier work
[2] = test system: Streptococcus pneumoniae (ATCC 49619); test: Agar petri dish test, plates wetted with 20 μl formulation, read after 24 hours; conditions: ethanol 5% in mPEG 95% (control)
Protocol: Formulations according to the invention were tested towards three bacterial strains: Staphylococcus aureus (ATCC 25923), Streptococcus pneumoniae (ATCC 49619), Haemophilus influenza (NCTC 8468). The bacteria were distributed in a thin layer across a petri dish with agar. Two plates were wetted with 20 μl of each formulation. The bacteria were allowed to grow at 37° C. for 24 hours. H. influenzae and S. pneumoniae were grown under CO2, but S. aureus was grown in normal atmosphere.
Readings of results were carried out 24 hours later.

[3] = test system: Staphylococcus aureus (ATCC 25923); test: as above; conditions: ethanol 5% in mPEG 95% (control)
[4] = test system: Haemophilus influenza (NCTC 8468); test: as above; assay type: cell-based; conditions: ethanol 5% in mPEG 95% (control)

CCCCCCCCCCCC(=O)OCC(O)CO (centres unmarked) [lauric acid 1-monoglyceride]
virucidal activity relative to the corresponding free fatty acid (capric, lauric acid) [1]: 10 fold

CCCCCCCCCC(=O)OCC(O)CO (centres unmarked) [Capric acid 1-monoglyceride, capric acid 1-monoglyceride]
virucidal activity relative to the corresponding free fatty acid (capric, lauric acid) [1]: 10 fold

CCO [ethanol]
effect of ethanol alone against Streptococcus pneumoniae [2]: essentially no effect | effect of ethanol alone against Staphylococcus aureus [3]: essentially no effect | effect of ethanol alone against Haemophilus influenza [4]: essentially no effect
